{"source": "patent US20140012013A1", "about": "“METHOD FOR PRODUCING PYRAZOLE CARBOXYLIC ACID DERIVATIVE” (SHIONOGI & CO., LTD., priority 2011, published 2014)", "assay": "log k′ (degree of lipophilic character) from HPLC retention time under gradient condition", "assay_type": "physicochemical", "conditions": "XTerra MS C18 5 μm, 2.1×100 mm column; acetonitrile/pH6.8 buffer 5:95~95:5/20 min; flow 0.25 mL/min", "description": "log k′ is a value which means degree of the lipophilic character, and is calculated by the following formula.\ntR: retention time of compound under gradient condition t0: retention time of standard material not retained in column\nXTerra MS C18 5 μm, 2.1×100 mm column (made by Waters) was used for measurement. The elution was a straight line inclination of acetonitrile/pH6.8 buffer (5:95˜95:5/20 min) at flow velocity 0.25 mL/min."}
{"compound": "COC(=O)NC12CC3CC(C1)C(NC(=O)c1cnn(/C=C/C(C)(C)NC(C)=O)c1OCC(C)C)C(C3)C2", "note": "(centres unmarked) [Compound (XIII-1-2)]", "values": [{"measurement": "log k′", "result": 0.886}]}
{"compound": "CC(=O)NCC12CC3CC(C1)C(NC(=O)c1cnn(/C=C/C(C)(C)NC(C)=O)c1OCC(C)C)C(C3)C2", "note": "(centres unmarked) [Compound (XIII-1-3)]", "values": [{"measurement": "log k′", "result": 0.838}]}
